Assay results reported in patent publication US20080292736A1, “Bioavailability enhancing activity of carum carvi extracts and fractions thereof” (COUNCIL OF SCIENTIFIC AND INDUSTRIAL RESEARCH, priority 2001, published 2008).

Legend:
[1] = drug with piperine; background statement; cited from earlier work
[2] = rat, in vivo

- % Enhancement in bioavailability, BE from Carum carvi [2]: 45%
- % Enhancement in bioavailability, Carum carvi + Piperine [2]: 50%
- % Enhancement in bioavailability, Carum carvi + Zingiber officinale [2]: 55%
- % Enhancement in bioavailability, BE from Zingiber officinale ([2]; 35 mg/kg): Nil
SMILES: NC(=O)c1cnccn1 [Pyrazinamide]
- bioenhancing effect of piperine on the drug [1]: nil or marginal
